Patent publication US9353171B2 (The Administrators of the Tulane Educational Fund, priority 2011, dated 2016)
Bridges are numbered along the chain shown (N, C = ends). Where no end group is shown, it is not given here.

What was measured:
[1] = rat, in vivo, iv; cited from earlier work
[2] = test system: human renal proximal tubule epithelial cells (HK-2 human kidney cells); test: Urografin-induced injury (cytotoxicity) of HK-2 cells, lactate dehydrogenase activity in the culture medium; assay type: cell-based; conditions: for Urografin-induced cell death of human renal proximal tubule epithelial cells: various concentrations added to the medium
Description: (§1) The HK-2 human kidney cells were cultured in Keratinocyte-Serum Free Medium supplemented with recombinant epidermal growth factor and bovine pituitary extract. […] Each value represents the mean plus/minus the standard error of four determinations. **p<0.01 and *p<0.05 compared to the cells treated only with Urografin.
The HK-2 human kidney cells were cultured in Keratinocyte-Serum Free Medium supplemented with recombinant epidermal growth factor and bovine pituitary extract. […] Each value represents the mean plus/minus the standard error of eight determinations. **p<0.01 and *p<0.05 compared to the cells treated only with Urografin. The ID numbers in the figure correspond to the SEQ ID NO numbers in the Sequence Listing. ID1=PACAP38, ID2=PACAP27, ID4=[D-Ser^2]PACAP38, ID5=[Aib^2]PACAP38, ID6=[D-Ser^2,Lys^38-palmitoyl]PACAP38, ID8=[Ala^22]PACAP38, ID10=[Lys^34]PACAP38, ID38=N-acetyl[Pip^3]PACAP38, ID39=[Pip^3,Ala^14,17,Aib^16,28,Lys^34, D-Lys^38]PACAP38, and ID40=[Pip^3,Ala^15,17,Aib^16,28,Lys^34,D-Lys^38]PACAP38.
(§2) At the highest dose tested, PACAP38 reduced the cell death caused by Urografin by more than 70%.

[3] = test system: human renal proximal tubule epithelial cells (HK-2 human kidney cells); test: Iohexol-induced inhibition of proliferation / loss of viable HK-2 cells, MTT conversion; assay type: cell-based; conditions: for loss of viable human renal proximal tubule epithelial cells caused by iohexol: various concentrations
Description: as §1, with “iohexol.” for “Urografin.”

[4] = test system: human renal proximal tubule epithelial cells (HK-2 human kidney cells); test: Secretion of KIM-1 by HK-2 cells treated with Urografin or iohexol, ELISA of culture medium; assay type: cell-based; conditions: 10^−6 M PACAP38, ELISA (FIG. 5)
Description: The HK-2 human kidney cells were cultured in Keratinocyte-Serum Free Medium supplemented with recombinant epidermal growth factor and bovine pituitary extract. The effects of 10^−6 M PACAP38 on the excretion of KIM-1 were assessed by determining the concentration of KIM-1 in the culture medium with an enzyme-linked immunosorbent assay. Each value represents the mean plus/minus the standard error of three determinations. **p<0.01 and *p<0.05 compared to the cells treated only with Urografin.
as §2

[5] = test system: male homozygous eNOS-deficient mice; test: Mouse model of contrast-induced nephropathy (Urografin i.v.), serum and kidney biomarkers; assay type: in vivo; conditions: 72 h
Description: (§3) Male homozygous eNOS-deficient mice were given a single intravenous injection of Urografin at a dose of 1.85 g iodine/kg body weight. The mice were deprived of water for 24 hours before the start of the experiment. Twenty micrograms of PACAP38 were given intraperitoneally 1 hour before the injection of Urografin and an additional dose was given 12 hours later. The control group of mice was injected intravenously with the same volume of saline as for the injections of Urografin and PACAP38 on the same schedule. The mice were euthanized 72 hours after the injection of Urografin. The concentration of cystatin C in serum was determined with an enzyme-linked immunosorbent assay. Each value represents the mean plus/minus the standard error of five or eight determinations. **p<0.01 compared to the group treated with Urografin and saline.
as §3, with “control” for “control group of”, “mice were” for “mice was”, “Urografin. Quantification” for “Urografin. The concentration”, “of mRNA levels for KIM-1” for “of cystatin C in serum”, “was made by real-time reverse transcriptase polymerase chain reaction analyses.” for “was determined with an enzyme-linked immunosorbent assay.”
as §3, with “control” for “control group of”, “mice were” for “mice was”, “Urografin. Quantification” for “Urografin. The concentration”, “of mRNA levels for netrin-1” for “of cystatin C in serum”, “was made by real-time reverse transcriptase polymerase chain reaction analyses.” for “was determined with an enzyme-linked immunosorbent assay.”
as §3, with “control” for “control group of”, “mice were” for “mice was”, “Urografin. Quantification” for “Urografin. The concentration”, “of mRNA levels for TNF-α” for “of cystatin C in serum”, “was made by real-time reverse transcriptase polymerase chain reaction analyses.” for “was determined with an enzyme-linked immunosorbent assay.”, “**p<0.01 and *p<0.05” for “**p<0.01”
Male homozygous eNOS-deficient mice were given a single intravenous injection of Urografin at a dose of 1.85 g iodine/kg body weight. The mice were deprived of water for 24 hours before the start of the experiment. Twenty micrograms of PACAP38 were given intraperitoneally 1 hour before the injection of Urografin and an additional dose was given 12 hours later. The control mice were injected intravenously with the same volume of saline as for the injections of Urografin and PACAP38 on the same schedule. The mice were euthanized 72 hours after the injection of Urografin. […]

PAC1 receptor = molecular target: T1, PAC1 receptor (Homo sapiens, UniProt P41586); conditions: in words; cited from earlier work
T1 sequence (P41586 21-468): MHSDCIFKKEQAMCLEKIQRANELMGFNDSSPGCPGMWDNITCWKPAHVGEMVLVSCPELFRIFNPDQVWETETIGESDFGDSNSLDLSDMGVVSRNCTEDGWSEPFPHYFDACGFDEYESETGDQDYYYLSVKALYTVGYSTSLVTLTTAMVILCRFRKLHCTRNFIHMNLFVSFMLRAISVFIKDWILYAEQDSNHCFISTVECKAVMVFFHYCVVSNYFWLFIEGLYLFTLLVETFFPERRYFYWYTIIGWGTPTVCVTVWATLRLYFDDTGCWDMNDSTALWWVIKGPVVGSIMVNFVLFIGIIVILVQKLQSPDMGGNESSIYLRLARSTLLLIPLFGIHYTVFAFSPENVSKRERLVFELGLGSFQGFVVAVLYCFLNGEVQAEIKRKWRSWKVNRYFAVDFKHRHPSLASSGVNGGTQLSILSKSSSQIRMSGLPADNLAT

[^125I]-PACAP38: radioiodinated PACAP38 used in a cited rat half-life study
half-life in the bloodstream [1]: 5 to 6 min

VIP (HSDAVFTDNYTRLRKQMAVKKYLNSILN-NH2; listed as Homo sapiens)
Urografin-induced cell death of human renal proximal tubule epithelial cells ([2]; LDH in medium (FIG. 2)): significant dose-dependent reduction | loss of viable human renal proximal tubule epithelial cells caused by iohexol ([3]; MTT (FIG. 4)): significant dose-dependent reduction

PACAP38
potency against Urografin-induced cell injury compared with VIP ([2]; 10^−8 M (p<0.05), 10^−7 M (p<0.01) and 10^−6 M (p<0.01) (FIG. 2)): significantly more potent than VIP | reduction of the cell death caused by Urografin ([2]; highest dose tested, HK-2 cells, LDH in medium (FIG. 2)): more than 70% | Urografin-induced cell death of human renal proximal tubule epithelial cells ([2]; LDH in medium (FIG. 2)): significant dose-dependent reduction | potency as renoprotectant against iohexol compared with VIP ([3]; 10^−7 M and 10^−6 M (FIG. 4)): significantly more potent than VIP | loss of viable human renal proximal tubule epithelial cells caused by iohexol at the highest dose ([3]; highest dose tested, MTT (FIG. 4)): almost completely prevented | loss of viable human renal proximal tubule epithelial cells caused by iohexol ([3]; MTT (FIG. 4)): significant dose-dependent reduction | Urografin-induced secretion of KIM-1 into the medium [4]: significantly reduced | iohexol-induced secretion of KIM-1 into the medium [4]: significantly reduced | Urografin-induced increase in serum levels of cystatin C ([5]; 20 μg i.p. 1 h before and 12 h after Urografin 1.85 g iodine/kg i.v., ELISA (FIG. 6)): reversed the increases | Urografin-induced increase in kidney levels of TNF-α protein ([5]; 20 μg i.p. 1 h before and 12 h after Urografin, ELISA (FIG. 16)): reversed the increases | Urografin-induced increase in kidney levels of TGF-β1 protein ([5]; 20 μg i.p. 1 h before and 12 h after Urografin, ELISA (FIG. 17)): reversed the increases | Urografin-induced increase in kidney levels of MCP-1 protein ([5]; 20 μg i.p. 1 h before and 12 h after Urografin, ELISA (FIG. 18)): reversed the increases | Urografin-induced increase in kidney levels of IFN-γ protein ([5]; 20 μg i.p. 1 h before and 12 h after Urografin, ELISA (FIG. 19)): reversed the increases | Urografin-induced increase in serum levels of creatinine ([5]; 20 μg i.p. 1 h before and 12 h after Urografin, LC-MS/MS (FIG. 11)): reversed the increases | Urografin-induced increase in kidney levels of KIM-1 mRNA ([5]; 20 μg i.p. 1 h before and 12 h after Urografin, real-time RT-PCR (FIG. 7)): reversed the increases | Urografin-induced increase in kidney levels of netrin-1 mRNA ([5]; 20 μg i.p. 1 h before and 12 h after Urografin, real-time RT-PCR (FIG. 8)): reversed the increases | Urografin-induced increase in kidney levels of TNF-α mRNA ([5]; 20 μg i.p. 1 h before and 12 h after Urografin, real-time RT-PCR (FIG. 9)): reversed the increases | Urografin-induced increase in kidney levels of iNOS mRNA ([5]; 20 μg i.p. 1 h before and 12 h after Urografin, real-time RT-PCR (FIG. 10)): reversed the increases | Urografin-induced increase in kidney levels of Nogo-B1 mRNA ([5]; 20 μg i.p. 1 h before and 12 h after Urografin, real-time RT-PCR (FIG. 12)): reversed the increases | Urografin-induced increase in kidney levels of TGF-β1 mRNA ([5]; 20 μg i.p. 1 h before and 12 h after Urografin, real-time RT-PCR (FIG. 13)): reversed the increases | Urografin-induced increase in kidney levels of Nox-4 mRNA ([5]; 20 μg i.p. 1 h before and 12 h after Urografin, real-time RT-PCR (FIG. 14)): reversed the increases | Urografin-induced increase in kidney levels of Nox-2 mRNA ([5]; 20 μg i.p. 1 h before and 12 h after Urografin, real-time RT-PCR (FIG. 15)): reversed the increases

B1: Maxadilan: 61-amino-acid peptide with two disulfide bridges from salivary glands of the sand fly Lutzomyia longipalpis; conformational analog of PACAP (peptide, listed as Lutzomyia longipalpis)
chain: CDATCQFRKAIEDCRKKAHHSDVLQTSVQTTATFTSMDTSQLPGSGVFKECMKQKAKEFKA
modifications: disulfide 1-5; disulfide 14-51 (inferred)
notes: 61-amino-acid peptide with two disulfide bridges from salivary glands of the sand fly Lutzomyia longipalpis; conformational analog of PACAP
binding to the PAC1 receptor (PAC1 receptor): high affinity
